Data: the CheMixHub viscosity set
± gives the uncertainty stated by the source.

Experiment: xn = mol fraction of the nth substance listed

COCCOCCOCCOC + CO
viscosity [mPa·s], 100 kPa
Details	293.15 K	298.15 K	303.15 K
x2 = 0.0543	2.129 ± 0.088	1.922 ± 0.08	1.733 ± 0.072
x2 = 0.0988	2.083 ± 0.086	1.882 ± 0.078	1.696 ± 0.07
x2 = 0.1978	1.982 ± 0.082	1.795 ± 0.074	1.621 ± 0.067
x2 = 0.3013	1.864 ± 0.077	1.689 ± 0.069	1.527 ± 0.063
x2 = 0.3994	1.737 ± 0.071	1.58 ± 0.065	1.434 ± 0.059
x2 = 0.5183	1.57 ± 0.064	1.433 ± 0.058	1.302 ± 0.053
x2 = 0.5962	1.443 ± 0.059	1.321 ± 0.054	1.203 ± 0.049
x2 = 0.6983	1.26 ± 0.051	1.158 ± 0.047	1.058 ± 0.043
x2 = 0.7969	1.055 ± 0.043	0.975 ± 0.04	0.894 ± 0.036
x2 = 0.8472	0.944 ± 0.038	0.875 ± 0.036	0.804 ± 0.033
x2 = 0.8993	0.825 ± 0.033	0.767 ± 0.031	0.705 ± 0.029
x2 = 0.9489	0.711 ± 0.029	0.662 ± 0.027	0.608 ± 0.025

C1COCCOCCOCCOCCO1 + CN(C)C=O
101 kPa
Details	viscosity [mPa·s]
293.15 K, x1 = 0.00344	0.8668 ± 0.012
293.15 K, x1 = 0.0059	0.8771 ± 0.012
293.15 K, x1 = 0.008679	0.8888 ± 0.012
293.15 K, x1 = 0.01131	0.8997 ± 0.012
293.15 K, x1 = 0.01335	0.9089 ± 0.012
293.15 K, x1 = 0.01528	0.9166 ± 0.012
298.15 K, x1 = 0.003438	0.8165 ± 0.011
298.15 K, x1 = 0.006613	0.8287 ± 0.011
298.15 K, x1 = 0.009181	0.8386 ± 0.011
298.15 K, x1 = 0.01161	0.8485 ± 0.011
298.15 K, x1 = 0.0137	0.8568 ± 0.011
298.15 K, x1 = 0.01547	0.8639 ± 0.012
303.15 K, x1 = 0.002196	0.7595 ± 0.01
303.15 K, x1 = 0.004812	0.7687 ± 0.01
303.15 K, x1 = 0.006882	0.7758 ± 0.01
303.15 K, x1 = 0.008916	0.7832 ± 0.01
303.15 K, x1 = 0.01094	0.7907 ± 0.011
303.15 K, x1 = 0.01259	0.797 ± 0.011
308.15 K, x1 = 0.003532	0.7213 ± 0.0097
308.15 K, x1 = 0.006367	0.7307 ± 0.0099
308.15 K, x1 = 0.008768	0.7387 ± 0.01
308.15 K, x1 = 0.01108	0.7463 ± 0.01
308.15 K, x1 = 0.01321	0.7538 ± 0.01
308.15 K, x1 = 0.01506	0.7599 ± 0.01

CC(C)(C)O + CCCCCCCCCC
Details	viscosity [mPa·s]
323.15 K, 101 kPa, x1 = 0.9499	1.155 ± 0.0094

CCNCC + CNC(C)=O
308.15 K, 101 kPa
Details	viscosity [mPa·s]
x2 = 0.0413	0.2729 ± 0.01
x2 = 0.1815	0.4061 ± 0.011
x2 = 0.3505	0.6727 ± 0.011
x2 = 0.5056	1.02 ± 0.013
x2 = 0.5776	1.254 ± 0.014
x2 = 0.6715	1.563 ± 0.015
x2 = 0.7881	2.064 ± 0.018
x2 = 0.8957	2.614 ± 0.021
x2 = 0.9724	3.097 ± 0.024

CC(C)(C)O + CC(=O)N(C)C
303.15 K, 101 kPa
Details	viscosity [mPa·s]
x2 = 0.1094	2.544 ± 0.022
x2 = 0.2069	2.032 ± 0.018
x2 = 0.3062	1.651 ± 0.015
x2 = 0.4037	1.422 ± 0.013
x2 = 0.5026	1.255 ± 0.012
x2 = 0.6154	1.128 ± 0.011
x2 = 0.7028	1.046 ± 0.011
x2 = 0.8064	0.973 ± 0.01
x2 = 0.8954	0.924 ± 0.01

CCC(O)CO (centres undefined) + CN(C)C=O
308.15 K, 101 kPa
Details	viscosity [mPa·s]
x1 = 0.0519	0.748 ± 0.02
x1 = 0.1008	0.855 ± 0.022
x1 = 0.2013	1.113 ± 0.028
x1 = 0.2983	1.444 ± 0.035
x1 = 0.4099	2.065 ± 0.05
x1 = 0.4883	2.645 ± 0.063
x1 = 0.5694	3.576 ± 0.084
x1 = 0.7139	7.387 ± 0.16
x1 = 0.8896	16.22 ± 0.32
x1 = 0.9489	21.9 ± 0.43

CCCBr + c1ccccc1
308.15 K, 101 kPa
Details	viscosity [mPa·s]
x2 = 0.1021	0.4369 ± 0.0037
x2 = 0.2992	0.4373 ± 0.0036
x2 = 0.3987	0.4413 ± 0.0035
x2 = 0.5041	0.4461 ± 0.0035
x2 = 0.6028	0.4525 ± 0.0034
x2 = 0.7033	0.4619 ± 0.0034
x2 = 0.8414	0.478 ± 0.0035
x2 = 0.8979	0.4898 ± 0.0035

ClCc1ccccc1 + COCCOC
298.15 K, 101 kPa
Details	viscosity [mPa·s]
x2 = 0.135	1.176 ± 0.029
x2 = 0.2599	1.026 ± 0.025
x2 = 0.3758	0.908 ± 0.023
x2 = 0.4836	0.807 ± 0.021
x2 = 0.5841	0.716 ± 0.019
x2 = 0.6781	0.635 ± 0.017
x2 = 0.7662	0.564 ± 0.015
x2 = 0.8489	0.506 ± 0.014
x2 = 0.9267	0.453 ± 0.013

Cc1ccc(NC(=O)NCCCCCCCCCCC(C)C)cc1NC(=O)NCCCCCCCCCCC(C)C + CCCCC
Details	viscosity [mPa·s]
293.15 K, 100 kPa, x1 = 0.0001	204 ± 16

COCCOCCOCCOC + CCCO
viscosity [mPa·s]
Details	298.15 K	308.15 K
101 kPa, x1 = 0.0386	1.777 ± 0.054	1.406 ± 0.044
101 kPa, x1 = 0.0615	1.714 ± 0.052	1.363 ± 0.043
101 kPa, x1 = 0.076	1.697 ± 0.052	1.34 ± 0.042
101 kPa, x1 = 0.1064	1.636 ± 0.05	1.318 ± 0.041
101 kPa, x1 = 0.1595	1.584 ± 0.049	1.28 ± 0.04
101 kPa, x1 = 0.2157	1.577 ± 0.048	1.288 ± 0.04
101 kPa, x1 = 0.2499	1.572 ± 0.048	1.274 ± 0.04
101 kPa, x1 = 0.2631	1.57 ± 0.048	1.275 ± 0.04
101 kPa, x1 = 0.3355	1.594 ± 0.049	1.288 ± 0.04
101 kPa, x1 = 0.422	1.607 ± 0.049	1.315 ± 0.041
101 kPa, x1 = 0.4701	1.635 ± 0.05	1.335 ± 0.042
101 kPa, x1 = 0.5148	1.654 ± 0.051	1.363 ± 0.043
101 kPa, x1 = 0.5848	1.693 ± 0.052	1.385 ± 0.043
101 kPa, x1 = 0.6662	1.743 ± 0.053	1.442 ± 0.045
101 kPa, x1 = 0.7126	1.772 ± 0.054	1.456 ± 0.045
101 kPa, x1 = 0.7778	1.826 ± 0.056	1.483 ± 0.046
101 kPa, x1 = 0.8098	1.853 ± 0.057	1.508 ± 0.047
101 kPa, x1 = 0.8789	1.89 ± 0.058	1.536 ± 0.048
101 kPa, x1 = 0.9504	1.942 ± 0.059	1.58 ± 0.049
101 kPa, x1 = 0.9719	1.956 ± 0.06	1.592 ± 0.049
101.33 kPa, x1 = 0.0081	1.918 ± 0.015	–
101.33 kPa, x1 = 0.0165	1.884 ± 0.015	–
101.33 kPa, x1 = 0.0245	1.856 ± 0.015	–
101.33 kPa, x1 = 0.0336	1.824 ± 0.014	–
101.33 kPa, x1 = 0.048	1.781 ± 0.014	–
101.33 kPa, x1 = 0.0692	1.725 ± 0.014	–
101.33 kPa, x1 = 0.0946	1.67 ± 0.013	–
101.33 kPa, x1 = 0.1327	1.614 ± 0.013	–
101.33 kPa, x1 = 0.1747	1.573 ± 0.013	–
101.33 kPa, x1 = 0.2259	1.549 ± 0.012	–
101.33 kPa, x1 = 0.2757	1.544 ± 0.012	–
101.33 kPa, x1 = 0.3226	1.548 ± 0.012	–
101.33 kPa, x1 = 0.3691	1.563 ± 0.013	–
101.33 kPa, x1 = 0.4157	1.578 ± 0.013	–
101.33 kPa, x1 = 0.4606	1.598 ± 0.013	–
101.33 kPa, x1 = 0.5153	1.625 ± 0.013	–
101.33 kPa, x1 = 0.5714	1.653 ± 0.013	–
101.33 kPa, x1 = 0.6283	1.684 ± 0.013	–
101.33 kPa, x1 = 0.6732	1.713 ± 0.014	–
101.33 kPa, x1 = 0.7227	1.743 ± 0.014	–
101.33 kPa, x1 = 0.7726	1.778 ± 0.014	–
101.33 kPa, x1 = 0.8162	1.812 ± 0.014	–
101.33 kPa, x1 = 0.8625	1.848 ± 0.015	–
101.33 kPa, x1 = 0.9112	1.888 ± 0.015	–
101.33 kPa, x1 = 0.9347	1.904 ± 0.015	–
101.33 kPa, x1 = 0.9568	1.919 ± 0.015	–
101.33 kPa, x1 = 0.9775	1.935 ± 0.015	–
